Test results published in the supplement of paper PMC11208160.

Test: recombinant UMI read abundance after kanamycin selection (control-corrected) (log10(CPM+1)); higher = more efficient recombination; extreme values may be limits of the assay; sequences stand for … in AGTGCAGAGAAAATCGGCCAGTTTTCTCTGCCTGCAGTCCGCATGCCGTGGGACCCCTTGGGTTCTAACCTGTTGCCTAGATTTATGCAGCGGACTGCCTTTCTCCCAAAGTGATAAACCGG…AGGTTGGTTTCACT; site = the 11-nt donor
Procedure, shortened: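 The measure is log10(CPM+1) for recombinant UMIs. These were PCR-amplified across the donor–target junction and sequenced after Escherichia coli carrying a donor and donor-binding-loop pair library and a target plasmid with T7-inducible IS621 bridge recombinase was plated on IPTG (0.07 mM) plus kanamycin or unselected. CPM were averaged over two replicates and scaled by control-derived factors.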
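Note: IS621 bridge recombinase in Escherichia coli cells against a fixed T5 target plasmid.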

| Sequence | recombinant UMI read abundance (log10) |
| --- | --- |
| TAGCCCACATGGACCGGTTTTCCCGGTAATCCGTATTTGTT (site TAGCCCACTAA) | 0.409 |
| TAGCCGGCATGGACCGGTTTTCCCGGTAATCCGTATTTGTA (site TAGCCGGCTTA) | 0.599 |
| TAGCTGGCATGGACCGGTTTTCCCGGTAATCCGTATTTGAA (site TAGCTAGCTTT) | 0.588 |
| TAGCTGGCATGGACCGGTTTTCCCGGTAATCCGTATTTGAA (site TAGCTCGCTTT) | 0.0161 |
| TAGCTGGCATGGACCGGTTTTCCCGGTAATCCGTATTTGAA (site TAGCTGGCTTT) | 0.732 |
| TAGCTGGCATGGACCGGTTTTCCCGGTAATCCGTATTTGAA (site TAGCTTGCTTT) | 0 |
| TAGCTTACATGGACCGGTTTTCCCGGTAATCCGTATTTGTC (site TAGCTTACTGA) | 1.56 |
| TAGCTTCCATGGACCGGTTTTCCCGGTAATCCGTATTTGGG (site TAGCTTCCTCC) | 0.0588 |
| TAGCTTGCATGGACCGGTTTTCCCGGTAATCCGTATTTGAA (site TAGCTAGCTTT) | 0.0193 |
| TAGCTTGCATGGACCGGTTTTCCCGGTAATCCGTATTTGAA (site TAGCTCGCTTT) | 0.0167 |
| TAGCTTGCATGGACCGGTTTTCCCGGTAATCCGTATTTGAA (site TAGCTGGCTTT) | 0.02 |
| TAGCTTGCATGGACCGGTTTTCCCGGTAATCCGTATTTGAA (site TAGCTTGCTTT) | 1.4 |
| TAGCTTTCATGGACCGGTTTTCCCGGTAATCCGTATTTGGT (site TAGCATTCTAC) | 0.374 |
| TAGCTTTCATGGACCGGTTTTCCCGGTAATCCGTATTTGGT (site TAGCCTTCTAC) | 0.157 |
| TAGCTTTCATGGACCGGTTTTCCCGGTAATCCGTATTTGGT (site TAGCGTTCTAC) | 0 |
| TAGCTTTCATGGACCGGTTTTCCCGGTAATCCGTATTTGGT (site TAGCTTTCTAC) | 0.807 |
| TAGGAAACATGGACCGGTTTTCCCGGTAATCCGTATTTGCG (site TAGGAAACTCG) | 2.39 |
| TAGGAAACATGGACCGGTTTTCCCGGTAATCCGTATTTGCG (site TAGGAACCTCG) | 0 |
| TAGGAAACATGGACCGGTTTTCCCGGTAATCCGTATTTGCG (site TAGGAAGCTCG) | 2.11 |
| TAGGAAACATGGACCGGTTTTCCCGGTAATCCGTATTTGCG (site TAGGAATCTCG) | 1.75 |
| TAGGCTGCATGGACCGGTTTTCCCGGTAATCCGTATTTGGT (site TAGGCTGCTAC) | 0.811 |
| TAGGGATCATGGACCGGTTTTCCCGGTAATCCGTATTTGCG (site TAGGAATCTCG) | 2.07 |
| TAGGGATCATGGACCGGTTTTCCCGGTAATCCGTATTTGCG (site TAGGCATCTCG) | 0.735 |
| TAGGGATCATGGACCGGTTTTCCCGGTAATCCGTATTTGCG (site TAGGGATCTCG) | 2.78 |
| TAGGGATCATGGACCGGTTTTCCCGGTAATCCGTATTTGCG (site TAGGTATCTCG) | 1.27 |

| Sequence | recombinant UMI read abundance (log10) |
| --- | --- |
| TAGGGATCATGGACCGGTTTTCCCGGTAATCCGTATTTGCT (site TAGGGATCTAG) | 2.31 |
| TAGGGGACATGGACCGGTTTTCCCGGTAATCCGTATTTGTT (site TAGGGGACTAA) | 1.75 |
| TAGGGTGCATGGACCGGTTTTCCCGGTAATCCGTATTTGAC (site TAGGGTGCTGT) | 2.6 |
| TAGGGTGCATGGACCGGTTTTCCCGGTAATCCGTATTTGCC (site TAGGGTGCTGG) | 2.58 |
| TAGGTTACATGGACCGGTTTTCCCGGTAATCCGTATTTGAT (site TAGGTTACTAT) | 1.79 |
| TAGGTTGCATGGACCGGTTTTCCCGGTAATCCGTATTTGGT (site TAGGTTGCTAC) | 1.27 |
| TAGTCTTCATGGACCGGTTTTCCCGGTAATCCGTATTTGGT (site TAGACTTCTAC) | 0.017 |
| TAGTCTTCATGGACCGGTTTTCCCGGTAATCCGTATTTGGT (site TAGCCTTCTAC) | 0.322 |
| TAGTCTTCATGGACCGGTTTTCCCGGTAATCCGTATTTGGT (site TAGGCTTCTAC) | 0.012 |
| TAGTCTTCATGGACCGGTTTTCCCGGTAATCCGTATTTGGT (site TAGTCTTCTAC) | 0.376 |
| TAGTGTACATGGACCGGTTTTCCCGGTAATCCGTATTTGGT (site TAGTGTACTAC) | 0.534 |
| TAGTTGACATGGACCGGTTTTCCCGGTAATCCGTATTTGCT (site TAATTGACTAG) | 1.17 |
| TAGTTGACATGGACCGGTTTTCCCGGTAATCCGTATTTGCT (site TACTTGACTAG) | 0.55 |
| TAGTTGACATGGACCGGTTTTCCCGGTAATCCGTATTTGCT (site TAGTTGACTAG) | 2.13 |
| TAGTTGACATGGACCGGTTTTCCCGGTAATCCGTATTTGCT (site TATTTGACTAG) | 0.0101 |
| TATAAGACATGGACCGGTTTTCCCGGTAATCCGTATTTGAC (site TATAAGACTGT) | 2.01 |
| TATAATTCATGGACCGGTTTTCCCGGTAATCCGTATTTGAC (site TATAATTCTGT) | 0.209 |
| TATAGCCCATGGACCGGTTTTCCCGGTAATCCGTATTTGTA (site TATAGCCCTTA) | 0.181 |
| TATAGCGCATGGACCGGTTTTCCCGGTAATCCGTATTTGTG (site TATAGCGCTCA) | 0.205 |
| TATAGGACATGGACCGGTTTTCCCGGTAATCCGTATTTGAT (site TATAGGACTAT) | 1.11 |
| TATATGGCATGGACCGGTTTTCCCGGTAATCCGTATTTGTG (site TATATGGCTCA) | 0.368 |
| TATATGGCATGGACCGGTTTTCCCGGTAATCCGTATTTGTG (site TATCTGGCTCA) | 0.00271 |
| TATATGGCATGGACCGGTTTTCCCGGTAATCCGTATTTGTG (site TATGTGGCTCA) | 0.00727 |
| TATATGGCATGGACCGGTTTTCCCGGTAATCCGTATTTGTG (site TATTTGGCTCA) | 0.0941 |
| TATATTGCATGGACCGGTTTTCCCGGTAATCCGTATTTGTC (site TATATTGCTGA) | 0 |

| Sequence | recombinant UMI read abundance (log10) |
| --- | --- |
| TATCCCGCATGGACCGGTTTTCCCGGTAATCCGTATTTGCC (site TATCCCGCTGG) | 1.79 |
| TATCCTGCATGGACCGGTTTTCCCGGTAATCCGTATTTGAC (site TATCCTGCTGT) | 0 |
| TATCGAACATGGACCGGTTTTCCCGGTAATCCGTATTTGTT (site TATCGAACTAA) | 0.00888 |
| TATCTCACATGGACCGGTTTTCCCGGTAATCCGTATTTGAC (site TATCTCACTGT) | 2.11 |
| TATCTTTCATGGACCGGTTTTCCCGGTAATCCGTATTTGAT (site TATCTTTCTAT) | 0 |
| TATGCCACATGGACCGGTTTTCCCGGTAATCCGTATTTGTA (site TATGCCACTTA) | 0.598 |
| TATGGCCCATGGACCGGTTTTCCCGGTAATCCGTATTTGAT (site TATGGCCCTAT) | 0.0149 |
| TATGTAGCATGGACCGGTTTTCCCGGTAATCCGTATTTGTT (site TATGTAGCTAA) | 1.23 |
| TATTCAACATGGACCGGTTTTCCCGGTAATCCGTATTTGCA (site GGGAACGCTAA) | 0.00333 |
| TATTCAACATGGACCGGTTTTCCCGGTAATCCGTATTTGTG (site TATTCAACTCA) | 0.011 |
| TATTGAGCATGGACCGGTTTTCCCGGTAATCCGTATTTGGG (site TAATGAGCTCC) | 0.0665 |
| TATTGAGCATGGACCGGTTTTCCCGGTAATCCGTATTTGGG (site TACTGAGCTCC) | 0.0155 |
| TATTGAGCATGGACCGGTTTTCCCGGTAATCCGTATTTGGG (site TAGTGAGCTCC) | 0.0187 |
| TATTGAGCATGGACCGGTTTTCCCGGTAATCCGTATTTGGG (site TATTGAGCTCC) | 0 |
| TATTGATCATGGACCGGTTTTCCCGGTAATCCGTATTTGTG (site TATTGATCTCA) | 0.805 |
| TATTGTTCATGGACCGGTTTTCCCGGTAATCCGTATTTGTG (site TATTGTTCTCA) | 0.00773 |
| TATTTGACATGGACCGGTTTTCCCGGTAATCCGTATTTGCT (site TAATTGACTAG) | 1.9 |
| TATTTGACATGGACCGGTTTTCCCGGTAATCCGTATTTGCT (site TACTTGACTAG) | 0.882 |
| TATTTGACATGGACCGGTTTTCCCGGTAATCCGTATTTGCT (site TAGTTGACTAG) | 0.852 |
| TATTTGACATGGACCGGTTTTCCCGGTAATCCGTATTTGCT (site TATTTGACTAG) | 2.54 |
| TATTTGACATGGACCGGTTTTCCCGGTAATCCGTATTTGTG (site TATTTGACTCA) | 0.0179 |
| TATTTGACATGGACCGGTTTTCCCGGTAATCCGTATTTGTG (site TATTTGCCTCA) | 0.00551 |
| TATTTGACATGGACCGGTTTTCCCGGTAATCCGTATTTGTG (site TATTTGGCTCA) | 0.00542 |
| TATTTGACATGGACCGGTTTTCCCGGTAATCCGTATTTGTG (site TATTTGTCTCA) | 0.0134 |
| TCAAACTCATGGACCGGTTTTCCCGGTAATCCGTATTTGCA (site TCAAACTCTTG) | 1.55 |
